Measurements: patent US7592458B2, “Dermal anesthetic compounds and pharmaceutical compositions for inducing local anesthesia and mitigating neuropathic pain” (priority 2006, dated 2009)
Structures can show the parent of a compound that is named as a salt. Marks after values point to notes of the source that are not given here.

Tested on: guinea pigs
Experiment: Local anesthetic activity (infiltration anesthesia), pin-prick method after intradermal injection
Assay type: in vivo, guinea pig
Conditions: 0.1 ml intradermal

Row | SMILES | Dermal anesthesia after intradermal injection: non-responding pinpricks of 36 (0.05%, 15 min) | Dermal anesthesia after intradermal injection: non-responding pinpricks of 36 (0.05%, 30 min) | Dermal anesthesia after intradermal injection: non-responding pinpricks of 36 (0.05%, 60 min) | Dermal anesthesia after intradermal injection: non-responding pinpricks of 36 (0.05%, 90 min) | Dermal anesthesia after intradermal injection: non-responding pinpricks of 36 (0.05%, 120 min) | Dermal anesthesia after intradermal injection: non-responding pinpricks of 36 (0.10%, 15 min) | Dermal anesthesia after intradermal injection: non-responding pinpricks of 36 (0.10%, 30 min) | Dermal anesthesia after intradermal injection: non-responding pinpricks of 36 (0.10%, 60 min) | Dermal anesthesia after intradermal injection: non-responding pinpricks of 36 (0.10%, 90 min) | Dermal anesthesia after intradermal injection: non-responding pinpricks of 36 (0.10%, 120 min) | other results
1 | c1ccc(N(CCC2CCCCN2)C2CCc3ccccc3C2)cc1 (stereo not drawn) [CLAC-34•HCl] | 35/36* | 36/36** | 6/36 | 36/36 | 36/36 | 36/36 | 36/36 | 36/36 | 36/36 | 36/36 | 
2 | CCCCN1CCCCC1CCN(c1ccccc1)C1CCc2ccccc2C1 (stereo not drawn) [Bu-CLAC-34•HCl] | 36/36 | 36/36 | 36/36 | 36/36 | 36/36 | 36/36 | 36/36 | 36/36 | 36/36 | 36/36 | 
3 | CCN(CC)CC(=O)Nc1c(C)cccc1C [Lidocaine.HCl, lidocaine, reference compound] |  |  |  |  |  |  |  |  |  |  | Dermal anesthesia after intradermal injection: non-responding pinpricks of 36 (0.25%, 15 min): 31/36; Dermal anesthesia after intradermal injection: non-responding pinpricks of 36 (0.25%, 30 min): 21/36; Dermal anesthesia after intradermal injection: non-responding pinpricks of 36 (0.25%, 60 min): 6/36; Dermal anesthesia after intradermal injection: non-responding pinpricks of 36 (0.25%, 90 min): 4/36; Dermal anesthesia after intradermal injection: non-responding pinpricks of 36 (0.25%, 120 min): 1/36; Dermal anesthesia after intradermal injection: non-responding pinpricks of 36 (0.50%, 15 min): 24/36; Dermal anesthesia after intradermal injection: non-responding pinpricks of 36 (0.50%, 30 min): 18/36; Dermal anesthesia after intradermal injection: non-responding pinpricks of 36 (0.50%, 60 min): 11/36; Dermal anesthesia after intradermal injection: non-responding pinpricks of 36 (0.50%, 90 min): 10/36; Dermal anesthesia after intradermal injection: non-responding pinpricks of 36 (0.50%, 120 min): 9/36; Dermal anesthesia after intradermal injection: non-responding pinpricks of 36 (1.00%, 15 min): 32/36; Dermal anesthesia after intradermal injection: non-responding pinpricks of 36 (1.00%, 30 min): 28/36; Dermal anesthesia after intradermal injection: non-responding pinpricks of 36 (1.00%, 60 min): 9/36; Dermal anesthesia after intradermal injection: non-responding pinpricks of 36 (1.00%, 90 min): 8/36; Dermal anesthesia after intradermal injection: non-responding pinpricks of 36 (1.00%, 120 min): 6/36
4 | CCCN(CCC)CCN(c1ccccc1)C1CCc2ccccc2C1 (stereo not drawn) [CLAC-PP•HCl] | 36/36 | 36/36 | 36/36 | 36/36 | 36/36 | 36/36 | 36/36 | 36/36 | 36/36 | 36/36 | 
